Experimental data reported in patent publication US12479849B2, “EGFR inhibitors for the treatment of cancer” (Hoffmann-La Roche Inc., priority 2019, dated 2025).

molecular target: T1, EGFR TMLRCS (Homo sapiens, UniProt P00533, C797S/L858R/T790M); assay: HTRF Phospho EGFR TMLRCS Assay (Cellular); format: cell-based; conditions: BaF3-TMLRCS cell line, 4 hours incubation, Phospho-EGFR HTRF readout
T1 construct: host or cells: BaF3-TMLRCS (Ba/F3 cells, kept under puromycin selection)
Procedure: HTRF Phospho EGFR TMLRCS Assay (Cellular)
BaF3-TMLRCS cell line were obtained from Crownbio (San Diego, CA, USA). Cells were maintained at 37° C., 5% CO2 in RPMI ATCC (Gibco 31870)+2 mM Glutamine+0.5 μg/ml Puromycin supplemented with 10% fetal bovine serum (FBS) (Gibco).
Cells are transferred as above to Greiner Bio-One, Nr. 784-08 micro-titerplate at 20000 cells/well in 12.5 μl of growth medium/well after the plates had been pre-filled with 12.5 nl of DMSO solutions of the to be tested compounds (in dose response) or DMSO only. After spinning the plates at 300×g for 30 seconds the cells were incubated for 4 hours at 37 C, 5% CO2, 95% humidity. The cells were lysed by adding to the compound mix 4 μl/well of the supplemented lysis buffer (Cis-bio, Phospho-EGFR HTRF kit, 64EG1PEH), followed by incubation for 30 min at room temperature with shaking (400 rpm). The plates were then frozen and stored overnight at −80 C. On the next day and after thawing the plates, 4 μl of a mixture of anti-Phospho-EGFR Cryptate and of anti-Phospho-EGFR-d2 antibody solutions prepared in the supplied detection buffer was added to each well. The lidded plates were then incubated for 4 h at room temperature before reading the fluorescence emission at 616 and 665 nm using an Envision reader (Perkin Elmer). Data was analyzed in similar fashion as above using the normalized ratio of the 665 to 616 signals multiplied by 10000.

T1 sequence (P00533 25-1210 T790M/C797S/L858R): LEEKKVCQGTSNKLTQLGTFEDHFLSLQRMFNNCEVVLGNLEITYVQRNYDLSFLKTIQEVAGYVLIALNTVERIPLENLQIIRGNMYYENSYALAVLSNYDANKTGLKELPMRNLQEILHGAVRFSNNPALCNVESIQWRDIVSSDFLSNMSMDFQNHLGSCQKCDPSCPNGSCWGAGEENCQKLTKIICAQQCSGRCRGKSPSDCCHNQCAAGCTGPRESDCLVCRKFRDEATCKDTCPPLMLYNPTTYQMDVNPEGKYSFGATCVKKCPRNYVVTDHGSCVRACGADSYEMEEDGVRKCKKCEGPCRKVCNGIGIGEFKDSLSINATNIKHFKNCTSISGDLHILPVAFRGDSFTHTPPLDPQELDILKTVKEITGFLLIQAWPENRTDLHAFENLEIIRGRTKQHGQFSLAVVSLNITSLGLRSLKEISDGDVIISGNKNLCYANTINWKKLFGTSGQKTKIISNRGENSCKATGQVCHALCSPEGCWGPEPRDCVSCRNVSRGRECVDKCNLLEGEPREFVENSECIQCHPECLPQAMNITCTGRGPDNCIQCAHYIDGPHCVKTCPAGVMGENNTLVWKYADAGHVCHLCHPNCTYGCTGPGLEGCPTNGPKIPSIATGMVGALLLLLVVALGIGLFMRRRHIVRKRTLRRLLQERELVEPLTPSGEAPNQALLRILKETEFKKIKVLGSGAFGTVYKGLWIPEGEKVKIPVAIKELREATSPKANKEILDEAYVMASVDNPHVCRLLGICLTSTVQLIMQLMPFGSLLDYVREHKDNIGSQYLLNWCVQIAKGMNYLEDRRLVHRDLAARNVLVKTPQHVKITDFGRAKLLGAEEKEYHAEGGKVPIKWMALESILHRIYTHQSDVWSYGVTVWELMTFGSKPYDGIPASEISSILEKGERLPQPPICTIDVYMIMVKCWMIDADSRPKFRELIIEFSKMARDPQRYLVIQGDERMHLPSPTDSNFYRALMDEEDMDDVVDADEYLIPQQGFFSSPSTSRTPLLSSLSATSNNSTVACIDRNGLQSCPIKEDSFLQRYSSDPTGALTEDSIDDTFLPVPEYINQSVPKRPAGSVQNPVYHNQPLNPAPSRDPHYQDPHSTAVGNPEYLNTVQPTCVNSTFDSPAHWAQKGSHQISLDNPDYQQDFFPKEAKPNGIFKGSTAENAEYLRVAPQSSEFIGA

IC50	SMILES
6 nM	COC1CCN(Cc2ccc(-c3cc(Cl)c4cn(C(C(=O)Nc5nccs5)c5ncn6c5C[C@@H](F)C6)nc4c3Cl)cc2)C1 (mixture of isomers) [Example 98, rac-2-(4,7-Dichloro-6-(4-((3-methoxypyrrolidin-1-yl)methyl)phenyl)-2H-indazol-2-yl)-2-((R)-6-fluoro-6,7-dihydro-5H-pyrrolo[1,2-c]imidazol-1-yl)-N-(thiazol-2-yl)acetamide]
7 nM	O=C(Nc1nccs1)C(c1ncn2c1C[C@@H](F)C2)n1cc2c(Cl)cc(-c3ccc(CCN4CCC(O)CC4)cc3)c(Cl)c2n1 (mixture of isomers) [Example 64, rac-2-(4,7-Dichloro-6-(4-(2-(4-hydroxypiperidin-1-yl)ethyl)phenyl)-2H-indazol-2-yl)-2-((R)-6-fluoro-6,7-dihydro-5H-pyrrolo[1,2-c]imidazol-1-yl)-N-(thiazol-2-yl)acetamide]
5 nM	CC1(O)CCN(Cc2ccc(-c3cc(Cl)c4cn(C(C(=O)Nc5nccs5)c5ncn6c5C[C@@H](F)C6)nc4c3Cl)cc2)CC1 (mixture of isomers) [Example 97, rac-2-(4,7-Dichloro-6-(4-((4-hydroxy-4-methylpiperidin-1-yl)methyl)phenyl)-2H-indazol-2-yl)-2-((R)-6-fluoro-6,7-dihydro-5H-pyrrolo[1,2-c]imidazol-1-yl)-N-(thiazol-2-yl)acetamide]
12 nM	COCCN1CCC(c2ccc(-c3cc(C)c4cn(C(C(=O)Nc5nccs5)c5ncn6c5C[C@@H](F)C6)nc4c3Cl)cc2)CC1 (stereo partly drawn) [Example 130, 2-(7-Chloro-6-(4-(1-(2-methoxyethyl)piperidin-4-yl)phenyl)-4-methyl-2H-indazol-2-yl)-2-((R)-6-fluoro-6,7-dihydro-5H-pyrrolo[1,2-c]imidazol-1-yl)-N-(thiazol-2-yl)acetamide]
8 nM	CC(O)CN1CCN(c2ccc(-c3cc(Cl)c4cn(C(C(=O)Nc5nccs5)c5ncn6c5C[C@@H](F)C6)nc4c3Cl)cc2)CC1 (mixture of isomers) [Example 71, rac-2-(4,7-Dichloro-6-(4-(4-(2-hydroxypropyl)piperazin-1-yl)phenyl)-2H-indazol-2-yl)-2-((R)-6-fluoro-6,7-dihydro-5H-pyrrolo[1,2-c]imidazol-1-yl)-N-(thiazol-2-yl)acetamide]
12 nM	O=C(Nc1nccs1)C(c1ncn2c1C[C@@H](F)C2)n1cc2c(Cl)cc(-c3ccc(C45CC(CN6CCC(CO)CC6)(C4)C5)cc3)c(Cl)c2n1 (mixture of isomers) [Example 50, rac-2-(4,7-Dichloro-6-(4-(3-((4-(hydroxymethyl)piperidin-1-yl)methyl)bicyclo[1.1.1]pentan-1-yl)phenyl)-2H-indazol-2-yl)-2-((R)-6-fluoro-6,7-dihydro-5H-pyrrolo[1,2-c]imidazol-1-yl)-N-(thiazol-2-yl)acetamide]
19 nM	CCN(CC)CC1(c2ccc(-c3cc(C)c4cn(C(C(=O)Nc5nccs5)c5ncn6c5C[C@@H](F)C6)nc4c3C)cc2)CC1 (stereo partly drawn) [Example 122, 2-(6-(4-(1-((Diethylamino)methyl)cyclopropyl)phenyl)-4,7-dimethyl-2H-indazol-2-yl) ((R)-6-fluoro-6,7-dihydro-5H-pyrrolo[1,2-c]imidazol-1-yl)-N-(thiazol-2-yl)acetamide]
6 nM	O=C(Nc1nccs1)C(c1ncn2c1C[C@@H](F)C2)n1cc2c(Cl)cc(-c3ccc(CN4C[C@H]5COC[C@H]5C4)cc3)c(Cl)c2n1 (mixture of isomers) [Example 99, rac-2-(4,7-Dichloro-6-(4-0(3aR,6aS)-tetrahydro-1H-furo[3,4-c]pyrrol-5(3H)-yl)methyl)phenyl)-2H-indazol-2-yl)-2-((R)-6-fluoro-6,7-dihydro-5H-pyrrolo[1,2-c]imidazol-1-yl)-N-(thiazol-2-yl)acetamide]
13 nM	O=C(Nc1nccs1)C(c1ncn2c1C[C@@H](F)C2)n1cc2c(Cl)cc(-c3ccc(OCCN4CCC5(CC4)CC(O)C5)cc3)c(Cl)c2n1 (mixture of isomers) [Example 92, rac-2-(4,7-Dichloro-6-(4-(2-(2-hydroxy-7-azaspiro[3.5]nonan-7-yl)ethoxy)phenyl)-2H-indazol-2-yl)-2-((R)-6-fluoro-6,7-dihydro-5H-pyrrolo[1,2-c]imidazol-1-yl)-N-(thiazol-2-yl)acetamide]
8 nM	O=C(Nc1nccs1)C(c1ncn2c1C[C@@H](F)C2)n1cc2c(Cl)cc(-c3ccc(CCN4CCC(O)C4)cc3)c(Cl)c2n1 (mixture of isomers) [Example 70, rac-2-(4,7-Dichloro-6-(4-(2-(3-hydroxypyrrolidin-1-yl)ethyl)phenyl)-2H-indazol-2-yl) ((R)-6-fluoro-6,7-dihydro-5H-pyrrolo[1,2-c]imidazol-1-yl)-N-(thiazol-2-yl)acetamide]
10 nM	CCN1CCC(c2ccc(-c3cc(Cl)c4cn(C(C(=O)Nc5nccs5)c5ncn6c5C[C@@H](F)C6)nc4c3Cl)cc2)CC1 (mixture of isomers) [Example 31, 2-[4,7-Dichloro-6-[4-(1-ethylpiperidin-4-yl)phenyl]indazol-2-yl]-2-[rac-(6R)-6-fluoro-6,7-dihydro-5H-pyrrolo[1,2-c]imidazol-1-yl]-N-(1,3-thiazol-2-yl)acetamide]
5 nM	O=C(Nc1nccs1)C(c1ncn2c1C[C@@H](F)C2)n1cc2c(Cl)cc(-c3ccc([C@@H]4CCN(CCO)C[C@H]4F)cc3)c(Cl)c2n1 (single isomer, unassigned) [Example 54]
32 nM	O=C(Nc1nccs1)C(c1ncn2c1CCC2)n1cc2c(Cl)cc(-c3ccc(N4CCOCC4)cc3)c(Br)c2n1 (stereo not drawn) [Example 134, 2-(7-Bromo-4-chloro-6-(4-morpholinophenyl)-2H-indazol-2-yl)-2-(6,7-dihydro-5H-pyrrolo[1,2-c]imidazol-1-yl)-N-(thiazol-2-yl)acetamide]
3 nM	O=C(Nc1nccs1)C(c1ncn2c1C[C@@H](F)C2)n1cc2c(Cl)cc(-c3ccc(N4CCOC(CO)C4)cc3)c(Cl)c2n1 (mixture of isomers) [Example 67, rac-2-(4,7-Dichloro-6-(4-(2-(hydroxymethyl)morpholino)phenyl)-2H-indazol-2-yl)-2-((R)-6-fluoro-6,7-dihydro-5H-pyrrolo[1,2-c]imidazol-1-yl)-N-(thiazol-2-yl)acetamide]
10 nM	O=C(Nc1nccs1)C(c1ncn2c1C[C@@H](F)C2)n1cc2c(Cl)cc(-c3ccc(CCN4CCC(CO)CC4)cc3)c(Cl)c2n1 (mixture of isomers) [Example 51, rac-2-(4,7-Dichloro-6-(4-(2-(4-(hydroxymethyl)piperidin-1-yl)ethyl)phenyl)-2H-indazol-2-yl)-2-((R)-6-fluoro-6,7-dihydro-5H-pyrrolo[1,2-c]imidazol-1-yl)-N-(thiazol-2-yl)acetamide]
8 nM	CN(C)Cc1ccc(-c2cc(Cl)c3cn(C(C(=O)Nc4nccs4)c4ncn5c4C[C@@H](F)C5)nc3c2Cl)cc1F (mixture of isomers) [Example 49, rac-2-(4,7-Dichloro-6-(4-((dimethylamino)methyl)-3-fluorophenyl)-2H-indazol-2-yl)-2-((R)-6-fluoro-6,7-dihydro-5H-pyrrolo[1,2-c]imidazol-1-yl)-N-(thiazol-2-yl)acetamide]
11 nM	CCc1c(-c2ccc(N3CCOCC3)cc2)cc(Cl)c2cn(C(C(=O)Nc3nccs3)c3ncn4c3C[C@@H](F)C4)nc12 (stereo partly drawn) [Example 125, 2-(4-Chloro-7-ethyl-6-(4-morpholinophenyl)-2H-indazol-2-yl)-2-((R)-6-fluoro-6,7-dihydro-5H-pyrrolo[1,2-c]imidazol-1-yl)-N-(thiazol-2-yl)acetamide]
8 nM	O=C(Nc1nccs1)C(c1ncn2c1C[C@@H](F)C2)n1cc2c(Cl)cc(-c3ccc(N4CCOCC4)cc3)c(C(F)F)c2n1 (mixture of isomers) [Example 106, rac-2-(4-Chloro-7-(difluoromethyl)-6-(4-morpholinophenyl)-2H-indazol-2-yl)-2-((R)-6-fluoro-6,7-dihydro-5H-pyrrolo[1,2-c]imidazol-1-yl)-N-(thiazol-2-yl)acetamide]
12 nM	O=C(Nc1nccs1)C(c1ncn2c1C[C@@H](F)C2)n1cc2c(Cl)cc(-c3ccc(C4CN(CCO)C4)cc3)c(Cl)c2n1 (stereo partly drawn) [Example 84, 2-(4,7-Dichloro-6-(4-(1-(2-hydroxyethyl)azetidin-3-yl)phenyl)-2H-indazol-2-yl)-2-((R)-6-fluoro-6,7-dihydro-5H-pyrrolo[1,2-c]imidazol-1-yl)-N-(thiazol-2-yl)acetamide]
6 nM	O=C(Nc1nccs1)C(c1ncn2c1C[C@@H](F)C2)n1cc2c(Cl)cc(-c3ccc(CCN4CCC(CO)C4)cc3)c(Cl)c2n1 (mixture of isomers) [Example 52, rac-2-(4,7-Dichloro-6-(4-(2-(3-(hydroxymethyl)pyrrolidin-1-yl)ethyl)phenyl)-2H-indazol-2-yl)-2-((R)-6-fluoro-6,7-dihydro-5H-pyrrolo[1,2-c]imidazol-1-yl)-N-(thiazol-2-yl)acetamide]
10 nM	CCN1CCCC2(C1)CN(c1ccc(-c3cc(Cl)c4cn(C(C(=O)Nc5nccs5)c5ncn6c5C[C@@H](F)C6)nc4c3Cl)cc1)C2 (stereo partly drawn) [Example 73, 2-(4,7-Dichloro-6-(4-(6-ethyl-2,6-diazaspiro[3.5]nonan-2-yl)phenyl)-2H-indazol-2-yl)-2-((R)-6-fluoro-6,7-dihydro-5H-pyrrolo[1,2-c]imidazol-1-yl)-N-(thiazol-2-yl)acetamide]
